ChEMBL document CHEMBL5352406 (Eur J Med Chem, 2022)

Key:
HCT-116 [1] = assay: Antiproliferative activity against human HCT-116 cells assessed as cell growth inhibition after 72 hrs by MTT assay; format: functional
SW480 = assay: Antiproliferative activity against human SW480 cells assessed as cell growth inhibition after 72 hrs by MTT assay; format: functional
Acetylcholinesterase = Acetylcholinesterase (Electrophorus electricus, UniProt O42275); assay: Inhibition of electric eel AChE using acetylthiocholine […] as substrate for 20 mins by Ellman's method
Acetylcholinesterase, sequence (O42275 whole entry): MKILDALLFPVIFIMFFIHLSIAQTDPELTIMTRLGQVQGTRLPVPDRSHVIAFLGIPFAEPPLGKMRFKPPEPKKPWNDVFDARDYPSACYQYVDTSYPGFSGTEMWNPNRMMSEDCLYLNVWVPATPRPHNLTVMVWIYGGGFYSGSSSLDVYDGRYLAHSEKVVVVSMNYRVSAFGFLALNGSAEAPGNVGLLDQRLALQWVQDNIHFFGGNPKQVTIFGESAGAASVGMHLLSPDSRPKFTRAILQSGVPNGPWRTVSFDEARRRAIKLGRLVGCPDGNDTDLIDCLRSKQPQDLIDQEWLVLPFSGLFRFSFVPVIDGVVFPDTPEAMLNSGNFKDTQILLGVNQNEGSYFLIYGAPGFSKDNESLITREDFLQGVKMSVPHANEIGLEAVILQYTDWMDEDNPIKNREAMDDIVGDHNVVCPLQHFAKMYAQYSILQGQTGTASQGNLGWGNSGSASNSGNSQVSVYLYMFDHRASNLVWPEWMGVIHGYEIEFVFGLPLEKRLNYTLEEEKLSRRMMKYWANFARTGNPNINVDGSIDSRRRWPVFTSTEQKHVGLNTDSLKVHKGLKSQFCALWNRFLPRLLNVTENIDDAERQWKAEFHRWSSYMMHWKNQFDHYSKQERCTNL

[2] = target: Cyclin-dependent kinase 13/Cyclin-K (Homo sapiens) (UniProt Q14004+O75909); assay: Inhibition of CDK13/Cyclin K (unknown origin) at 500 nM by ADP-Glo kinase assay relative to control; format: protein-complex assay
Cyclin-dependent kinase 13/Cyclin-K (Homo sapiens), sequence (O75909 whole entry, looked up): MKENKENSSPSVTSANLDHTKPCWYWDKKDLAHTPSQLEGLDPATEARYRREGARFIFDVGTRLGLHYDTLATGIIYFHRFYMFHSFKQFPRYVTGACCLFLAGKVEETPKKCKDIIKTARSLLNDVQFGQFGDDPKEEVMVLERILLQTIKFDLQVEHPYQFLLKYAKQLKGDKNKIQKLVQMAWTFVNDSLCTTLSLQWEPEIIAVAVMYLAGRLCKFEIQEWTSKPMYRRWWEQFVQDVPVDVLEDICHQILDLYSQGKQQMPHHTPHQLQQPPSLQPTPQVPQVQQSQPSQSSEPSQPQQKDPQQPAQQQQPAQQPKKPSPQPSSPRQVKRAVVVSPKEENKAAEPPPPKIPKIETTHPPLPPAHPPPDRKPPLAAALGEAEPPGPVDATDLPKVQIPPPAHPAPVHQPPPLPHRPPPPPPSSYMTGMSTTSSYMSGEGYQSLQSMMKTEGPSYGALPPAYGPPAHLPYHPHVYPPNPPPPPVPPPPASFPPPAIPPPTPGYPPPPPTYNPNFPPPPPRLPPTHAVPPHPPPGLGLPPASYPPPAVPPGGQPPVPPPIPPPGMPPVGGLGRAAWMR
Cyclin-dependent kinase 13/Cyclin-K (Homo sapiens), sequence (Q14004 whole entry, looked up): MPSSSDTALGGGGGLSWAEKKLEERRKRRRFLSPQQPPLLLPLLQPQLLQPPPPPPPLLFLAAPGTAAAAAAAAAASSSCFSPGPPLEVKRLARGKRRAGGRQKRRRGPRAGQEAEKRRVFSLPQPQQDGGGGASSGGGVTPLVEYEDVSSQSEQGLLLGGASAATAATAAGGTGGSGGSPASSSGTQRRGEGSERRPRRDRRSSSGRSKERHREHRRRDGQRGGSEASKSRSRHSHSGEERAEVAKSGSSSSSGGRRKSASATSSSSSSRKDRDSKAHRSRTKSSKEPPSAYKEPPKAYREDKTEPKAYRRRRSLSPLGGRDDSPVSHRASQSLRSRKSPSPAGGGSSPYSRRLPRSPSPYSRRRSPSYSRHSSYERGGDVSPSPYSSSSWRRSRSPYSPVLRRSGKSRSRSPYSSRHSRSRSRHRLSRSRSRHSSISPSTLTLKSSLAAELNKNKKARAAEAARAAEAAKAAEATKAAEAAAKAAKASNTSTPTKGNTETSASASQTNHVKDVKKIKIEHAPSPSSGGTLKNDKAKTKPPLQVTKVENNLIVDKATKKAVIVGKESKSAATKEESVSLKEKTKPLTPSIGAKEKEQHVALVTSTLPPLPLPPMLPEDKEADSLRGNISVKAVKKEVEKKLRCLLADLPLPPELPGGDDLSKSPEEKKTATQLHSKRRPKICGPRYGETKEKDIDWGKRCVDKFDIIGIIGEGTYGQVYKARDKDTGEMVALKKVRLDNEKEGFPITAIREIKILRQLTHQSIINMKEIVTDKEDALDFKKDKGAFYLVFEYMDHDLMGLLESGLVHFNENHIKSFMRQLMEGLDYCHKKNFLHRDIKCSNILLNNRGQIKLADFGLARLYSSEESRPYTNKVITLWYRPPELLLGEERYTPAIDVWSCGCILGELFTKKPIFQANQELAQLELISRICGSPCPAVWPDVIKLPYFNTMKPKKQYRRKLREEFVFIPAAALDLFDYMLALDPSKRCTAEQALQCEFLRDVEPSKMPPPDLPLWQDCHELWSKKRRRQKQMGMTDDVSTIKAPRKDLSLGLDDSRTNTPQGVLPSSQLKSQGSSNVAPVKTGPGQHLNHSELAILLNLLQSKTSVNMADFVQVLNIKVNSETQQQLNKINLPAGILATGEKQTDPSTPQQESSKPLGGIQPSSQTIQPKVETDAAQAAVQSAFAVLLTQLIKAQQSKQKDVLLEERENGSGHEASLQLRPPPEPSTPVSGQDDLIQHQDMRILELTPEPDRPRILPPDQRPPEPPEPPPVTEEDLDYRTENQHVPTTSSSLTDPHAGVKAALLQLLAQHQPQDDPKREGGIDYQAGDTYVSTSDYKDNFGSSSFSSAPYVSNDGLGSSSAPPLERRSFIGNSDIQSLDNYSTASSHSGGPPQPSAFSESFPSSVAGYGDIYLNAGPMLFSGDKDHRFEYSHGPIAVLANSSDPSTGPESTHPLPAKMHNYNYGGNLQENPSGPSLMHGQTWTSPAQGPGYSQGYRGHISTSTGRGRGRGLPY

[3] = target: Cyclin-Y/Cyclin-dependent kinase 16 (Homo sapiens) (UniProt Q00536+Q8ND76); assay: Inhibition of CDK16/Cyclin Y (unknown origin) at 500 nM by ADP-Glo kinase assay relative to control; format: protein-complex assay
[4] = target: CDK18/Cyclin Y (Homo sapiens) (UniProt Q07002+Q8ND76); assay: Inhibition of CDK18/Cyclin Y (unknown origin) at 500 nM by ADP-Glo kinase assay relative to control; format: protein-complex assay
[5] = target: Cyclin-dependent kinase 4/cyclin D1 (Homo sapiens) (UniProt P11802+P24385); assay: Inhibition of CDK4/Cyclin D1 (unknown origin) at 500 nM by ADP-Glo kinase assay relative to control; format: protein-complex assay
[6] = target: Cyclin-C/Cyclin-dependent kinase 19 (Homo sapiens) (UniProt Q9BWU1+P24863); assay: Inhibition of CDK19/Cyclin C (unknown origin) at 500 nM by ADP-Glo kinase assay relative to control; format: protein-complex assay
HCT-116 [7] = assay: Induction of apoptosis in human HCT-116 cells assessed as late apoptotic cells at 20 nM measured after 48 hrs by Annexin V-FITC/PI assay (reference value: 6.06%); format: functional
HCT-116 [8] = assay: Induction of apoptosis in human HCT-116 cells assessed as necrotic cells at 20 nM measured after 48 hrs by Annexin V-FITC/PI assay (reference value: 2.31%); format: functional
HCT-116 [9] = assay: Cell cycle arrest in human HCT-116 cells assessed as accumulation of cells at G0-G1 phase at 10 nM measured after 48 hrs by flow cytometry (reference value: 62.18%); format: functional
HCT-116 [10] = assay: Cell cycle arrest in human HCT-116 cells assessed as accumulation of cells at […] phase at 20 nM measured after 48 hrs by flow cytometry (reference value: 6.39%); format: functional
[11] = Acute toxicity in Kunming mouse assessed as survival at 20 mg/kg, po measured for 2 weeks; format: organism-based; conditions: in vivo
[12] = Acute toxicity in Kunming mouse assessed as survival at 30 mg/kg, po measured for 2 weeks; format: organism-based; conditions: in vivo
[13] = Acute toxicity in Kunming mouse assessed as survival at 46 mg/kg, po measured for 2 weeks; format: organism-based; conditions: in vivo
[14] = Acute toxicity in Kunming mouse assessed as survival at 69 mg/kg, po measured for 2 weeks; format: organism-based; conditions: in vivo
[15] = Acute toxicity in Kunming mouse assessed as survival at 105 mg/kg, po measured for 2 weeks; format: organism-based; conditions: in vivo
[16] = Half life in Sprague-Dawley rat at 2 mg/kg, iv; format: ADME, organism-based; conditions: in vivo
[17] = Half life in Sprague-Dawley rat at 20 mg/kg, po; format: ADME, organism-based; conditions: in vivo
[18] = AUC (0 to t) in Sprague-Dawley rat at 2 mg/kg, iv; format: ADME, organism-based; parameters: dose 2 mg/kg, route iv; conditions: in vivo
[19] = AUC (0 to infinity) in Sprague-Dawley rat at 2 mg/kg, iv; format: ADME, organism-based; parameters: dose 2 mg/kg, route iv; conditions: in vivo
[20] = AUC (0 to infinity) in Sprague-Dawley rat at 20 mg/kg, po; format: ADME, organism-based; parameters: dose 20 mg/kg, route po; conditions: in vivo
[21] = Clearance in Sprague-Dawley rat at 2 mg/kg, iv; format: ADME, organism-based; conditions: in vivo
[22] = Volume of distribution at steady state in Sprague-Dawley rat at 2 mg/kg, iv; format: ADME, organism-based; conditions: in vivo, read-out: Vdss
HCT-116 [23] = assay: Antitumor activity against human HCT-116 cells xenografted in BALB/cA-nu mouse tumor model assessed as tumor weight growth inhibition at 10 mg/kg, intragastric administration for 21 days relative to control; format: functional; conditions: HCT-116, 504 h, route ig, time 21 day, read-out: TGI
[24] = Toxicity in BALB/cA-nu mouse xenografted with human HCT116 cells assessed as liver injury by measuring AST level at 10 mg/kg, intragastric administration for 21 days; format: organism-based, HCT-116; conditions: in vivo, po, 504 h, time 21 day

Cl.N[C@H]1CCN(c2c3c(nc4ccc(-c5ccnc(NC(=O)C6CC6)n5)cc24)CCCCC3)C1
GI50 (HCT-116 [1]): 6 nM
GI50 (SW480): 13 nM
IC50 (Acetylcholinesterase): 19000 nM
inhibition [2]: 80.9%
inhibition [3]: 76.1%
inhibition [4]: 68.1%
inhibition [5]: 31.6%
inhibition [6]: 12.9%
Activity (HCT-116 [7]): 13.6%
Activity (HCT-116 [8]): 1.23%
Activity (HCT-116 [9]): 46.65%
Activity (HCT-116 [10]): 13.11%
survival at 336 h [11]: 100%
survival at 336 h [12]: 100%
survival at 336 h [13]: 100%
survival at 336 h [14]: 100%
survival at 336 h [15]: 50%
half-life [16]: 0.461 h
half-life [17]: 1.77 h
AUC(0-t) [18]: 110 ng·h/mL
AUC(0-inf) [19]: 115 ng·h/mL
AUC(0-inf) [20]: 316 ng·h/mL
clearance [21]: 312 mL/min/kg
Vd [22]: 12.6 L/kg
inhibition in vivo at 10 mg/kg (HCT-116 [23]): 62.4%
Activity [24]: Non-Toxic
